Here are results for one compound from article PMC10907560, “Significant reduction of activity retention in the kidneys via optimized linker sequences in radiohybrid-based minigastrin analogs” (EJNMMI Research, 2024).

Each structure is given as a SMILES string.

The experiment concerns the target T1, cholecystokinin-2 receptor (CCK-2R) (Rattus norvegicus, UniProt P30553).
T1 construct: host or cells: AR42J (rat pancreatic cancer cells)
T1 sequence (P30553 1-452): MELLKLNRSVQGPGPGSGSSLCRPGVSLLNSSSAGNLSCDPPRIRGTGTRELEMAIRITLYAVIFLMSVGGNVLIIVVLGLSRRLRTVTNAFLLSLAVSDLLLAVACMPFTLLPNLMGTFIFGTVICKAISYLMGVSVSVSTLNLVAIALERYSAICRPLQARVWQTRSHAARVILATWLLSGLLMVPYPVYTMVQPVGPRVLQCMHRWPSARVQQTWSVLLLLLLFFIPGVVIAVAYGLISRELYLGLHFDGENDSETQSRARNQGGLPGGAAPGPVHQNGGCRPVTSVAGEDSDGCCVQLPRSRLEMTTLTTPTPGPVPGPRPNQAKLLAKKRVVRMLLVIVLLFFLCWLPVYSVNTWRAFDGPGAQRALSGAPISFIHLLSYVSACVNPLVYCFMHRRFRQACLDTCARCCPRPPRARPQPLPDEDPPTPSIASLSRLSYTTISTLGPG
Briefly: CCK-2R affinity (apparent IC50), competitive binding on AR42J cells. Particulars: natLu-labeled peptide, 3 h, 37 °C, [177Lu]Lu-DOTA-PP-F11N (0.3 pmol) as radiolabeled reference. The protocol:
On the next day, medium was removed, cells were washed with PBS (300 µL) and fresh nutrient medium supplemented with 5% BSA (200 µL) was added. The peptide of interest (25 µL in nutrient medium) in increasing concentrations (10^−10 to 10^−4 M) in triplicate as well as [^177Lu]Lu-DOTA-PP-F11N (25 μL, 0.3 pmol) were added to the cells and the assay was incubated for 3 h at 37 °C. Subsequently, the supernatant was collected, cells were washed with PBS (300 µL) and both fractions were unified. Cell lysis was conducted by addition of NaOH (300 µL, 1 N) and incubation for at least 20 min at room temperature. The supernatant was collected, the respective wells were washed with NaOH (300 µL, 1 N) and both fractions were unified. Radioactivity of all fractions collected was quantified using a γ-counter (PerkinElmer Inc., Waltham, United States). Apparent half-maximal inhibitory concentration (IC50) was calculated via the GraphPad PRISM software (GraphPad Software Inc., La Jolla, United States).
CCK-2R positive rat pancreatic cancer cells AR42J (CLS GmbH, Eppelheim, Germany) were cultivated in monolayers in CELLSTAR® cell culture flask (Greiner Bio-One GmbH, Frickenhausen, Germany) at 37°C in a humidified atmosphere (5% CO2). Therefor, a HERAcell 150i-Incubator (Thermo Fisher Scientific Inc., Waltham, United States) was used. RPMI 1640 medium, supplemented with 5 mM L-Gln 5 mL non-essential amino acids (100×) and 10% FCS, was used for cell nutrition. Detachment of the cells for passaging was conducted with a Dulbecco’s PBS solution supplemented with 0.1% EDTA (v/v). Cell numbers were determined with a Neubauer hemocytometer (Paul Marienfeld, Lauda-Königshofen, Germany). All operations requiring sterile conditions, were accomplished using a MSC-Advantage safety workbench (Thermo Fisher Scientific Inc., Waltham, United States).
Table S1. Affinity, lipophilicity and human serum albumin binding data of the compounds evaluated. Affinity data were determined on AR42J cells (2.0 × 10^5 cells/well) and [^177Lu]Lu-DOTA-PP-F11N (0.3 pmol/well) as radiolabeled reference (3 h, 37 °C, RPMI 1640, 5 mM L-Gln, 5 mL non-essential amino acids (100×), 10% FCS + 5% BSA (v/v)).

As to `CCCC[C@@H](C(=O)N[C@@H](CC(=O)O)C(=O)N[C@@H](Cc1cccc2ccccc12)C(N)=O)N(C)C(=O)[C@H](Cc1c[nH]c2ccccc12)NC(=O)CCOCCOCCOCCOCCNC(=O)CC[C@@H](NC(=O)CCOCCOCCOCCOCCOCCNC(=O)CC[C@@H](NC(=O)[C@@H](CNC(=O)C[N+](C)(C)Cc1ccc([Si](F)(C(C)(C)C)C(C)(C)C)cc1)NC(=O)CN1CCN(CC(=O)O)CCN(CC(=O)O)CCN(CC(=O)O)CC1)C(=O)O)C(=O)O` [[^nat/177Lu]Lu-DOTA-rhCCK-91, DOTA-D-Dap(SiFAlin)-D-γ-Glu-(PEG)4-D-γ-Glu-(PEG)3-Trp-(N-Me)Nle-Asp-1-Nal-NH2, metal not drawn], the half-maximal inhibitory concentration (IC50) – broadly, the midpoint of a concentration-inhibition curve – (n = 3, listed as [^177/natLu]Lu-DOTA-rhCCK-91) worked out at 8.6 ± 0.7 nM and the IC50 (n = 3, listed as [^natLu]Lu-DOTA-rhCCK-91) is 8.56 ± 0.66 nM.
